In PubChem BioAssay (NCI):
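In this assay, cells in 96-well plates receive the compound at five concentrations for 48 hours. Endpoints are linearly interpolated between the surrounding concentrations. TGI: concentration producing complete growth inhibition.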

Key:
Experiment in all cases: NCI tumour cell line growth inhibition, 48 h
786-0 renal = test system: 786-0 renal
A498 renal = test system: A498 renal
A549 NSCLC = test system: A549 NSCLC
ACHN renal = test system: ACHN renal
CAKI-1 renal = test system: CAKI-1 renal
CCRF-CEM leukemia = test system: CCRF-CEM leukemia
COLO 205 colon = test system: COLO 205 colon
DU-145 prostate = test system: DU-145 prostate
EKVX NSCLC = test system: EKVX NSCLC
HCC-2998 colon = test system: HCC-2998 colon
HCT-116 colon = test system: HCT-116 colon
HCT-15 colon = test system: HCT-15 colon
HL-60(TB) leukemia = test system: HL-60(TB) leukemia
HOP-62 NSCLC = test system: HOP-62 NSCLC
HS 578T breast = test system: HS 578T breast
HT29 colon = test system: HT29 colon
IGROV1 ovarian = test system: IGROV1 ovarian
K-562 leukemia = test system: K-562 leukemia
KM12 colon = test system: KM12 colon
LOX IMVI melanoma = test system: LOX IMVI melanoma
M14 melanoma = test system: M14 melanoma
MALME-3M melanoma = test system: MALME-3M melanoma
MCF7 breast = test system: MCF7 breast
MDA-MB-231 breast = test system: MDA-MB-231 breast
MDA-MB-435 = test system: MDA-MB-435
MOLT-4 leukemia = test system: MOLT-4 leukemia
NCI-H226 lung = test system: NCI-H226 lung
NCI-H23 lung = test system: NCI-H23 lung
NCI-H460 lung = test system: NCI-H460 lung
NCI/ADR-RES ovarian = test system: NCI/ADR-RES ovarian
OVCAR-4 ovarian = test system: OVCAR-4 ovarian
OVCAR-5 ovarian = test system: OVCAR-5 ovarian
OVCAR-8 ovarian = test system: OVCAR-8 ovarian
PC-3 prostate = test system: PC-3 prostate
RPMI-8226 leukemia = test system: RPMI-8226 leukemia
SF-268 CNS = test system: SF-268 CNS
SF-539 CNS = test system: SF-539 CNS
SK-MEL-2 melanoma = test system: SK-MEL-2 melanoma
SK-MEL-28 melanoma = test system: SK-MEL-28 melanoma
SK-MEL-5 melanoma = test system: SK-MEL-5 melanoma
SK-OV-3 ovarian = test system: SK-OV-3 ovarian
SN12C renal = test system: SN12C renal
SNB-19 CNS = test system: SNB-19 CNS
SNB-75 CNS = test system: SNB-75 CNS
SR leukemia = test system: SR leukemia
SW-620 colon = test system: SW-620 colon
T-47D breast = test system: T-47D breast
TK-10 renal = test system: TK-10 renal
U251 CNS = test system: U251 CNS
UACC-257 melanoma = test system: UACC-257 melanoma
UACC-62 melanoma = test system: UACC-62 melanoma
UO-31 renal = test system: UO-31 renal
NCI-H522 lung = test system: NCI-H522 lung
OVCAR-3 ovarian = test system: OVCAR-3 ovarian
RXF 393 renal = test system: RXF 393 renal
SF-295 CNS = test system: SF-295 CNS
HOP-92 NSCLC = test system: HOP-92 NSCLC

`O=C(CC(C(=O)c1cccs1)c1ccsc1)c1ccc(Cl)s1` (configuration not stated) was tested, and the TGI (786-0 renal) was greater than 100 µM, the TGI (A498 renal) was greater than 100 µM and the TGI (A549 NSCLC) was greater than 100 µM. It also gave a TGI (ACHN renal) greater than 100 µM, a TGI (CAKI-1 renal) greater than 100 µM and a TGI (CCRF-CEM leukemia) greater than 100 µM. The TGI (COLO 205 colon) was greater than 100 µM, the TGI (DU-145 prostate) was greater than 100 µM and the TGI (EKVX NSCLC) was greater than 100 µM. It also gave a TGI (HCC-2998 colon) greater than 100 µM, a TGI (HCT-116 colon) greater than 100 µM and a TGI (HCT-15 colon) greater than 100 µM. It also gave a TGI (HL-60(TB) leukemia) greater than 100 µM, a TGI (HOP-62 NSCLC) greater than 100 µM and a TGI (HS 578T breast) greater than 100 µM. The TGI (HT29 colon) was greater than 100 µM, the TGI (IGROV1 ovarian) was greater than 100 µM and the TGI (K-562 leukemia) was greater than 100 µM. For the same compound, the TGI (KM12 colon) was greater than 100 µM, the TGI (LOX IMVI melanoma) was greater than 100 µM and the TGI (M14 melanoma) was greater than 100 µM. For the same compound, the TGI (MALME-3M melanoma) was greater than 100 µM, the TGI (MCF7 breast) was greater than 100 µM and the TGI (MDA-MB-231 breast) was greater than 100 µM. The TGI (MDA-MB-435) was greater than 100 µM, the TGI (MOLT-4 leukemia) was greater than 100 µM and the TGI (NCI-H226 lung) was greater than 100 µM. For the same compound, the TGI (NCI-H23 lung) was greater than 100 µM, the TGI (NCI-H460 lung) was greater than 100 µM and the TGI (NCI/ADR-RES ovarian) was greater than 100 µM. It also gave a TGI (OVCAR-4 ovarian) greater than 100 µM, a TGI (OVCAR-5 ovarian) greater than 100 µM and a TGI (OVCAR-8 ovarian) greater than 100 µM. It also gave a TGI (PC-3 prostate) greater than 100 µM, a TGI (RPMI-8226 leukemia) greater than 100 µM and a TGI (SF-268 CNS) greater than 100 µM. For the same compound, the TGI (SF-539 CNS) was greater than 100 µM, the TGI (SK-MEL-2 melanoma) was greater than 100 µM and the TGI (SK-MEL-28 melanoma) was greater than 100 µM. It also gave a TGI (SK-MEL-5 melanoma) greater than 100 µM, a TGI (SK-OV-3 ovarian) greater than 100 µM and a TGI (SN12C renal) greater than 100 µM. The TGI (SNB-19 CNS) was greater than 100 µM, the TGI (SNB-75 CNS) was greater than 100 µM and the TGI (SR leukemia) was greater than 100 µM. For the same compound, the TGI (SW-620 colon) was greater than 100 µM, the TGI (T-47D breast) was greater than 100 µM and the TGI (TK-10 renal) was greater than 100 µM. The TGI (U251 CNS) was greater than 100 µM, the TGI (UACC-257 melanoma) was greater than 100 µM and the TGI (UACC-62 melanoma) was greater than 100 µM. For the same compound, the TGI (UO-31 renal) was greater than 100 µM.

`COc1ccc2cc1Oc1ccc(cc1)C[C@@H]1c3cc(c(OC)cc3CCN1C)Oc1c(OC)c(OC)cc3c1[C@H](C2)N(C)CC3` gave a TGI (786-0 renal) of 89.6 µM, a TGI (A498 renal) of 42.5 µM and a TGI (ACHN renal) of 28.5 µM. It also gave a TGI (CCRF-CEM leukemia) of 51.8 µM, a TGI (HCC-2998 colon) of 25.8 µM and a TGI (HCT-116 colon) greater than 100 µM. The TGI (HCT-15 colon) was 25.1 µM, the TGI (HL-60(TB) leukemia) was 30.8 µM and the TGI (HS 578T breast) was 42.3 µM. The TGI (IGROV1 ovarian) was 72.9 µM, the TGI (K-562 leukemia) was 23 µM and the TGI (M14 melanoma) was 37.1 µM. It also gave a TGI (MCF7 breast) of 31 µM, a TGI (MDA-MB-231 breast) of 29.9 µM and a TGI (NCI-H23 lung) of 34.1 µM. It also gave a TGI (NCI-H460 lung) of 29.7 µM, a TGI (NCI-H522 lung) of 33.4 µM and a TGI (OVCAR-3 ovarian) greater than 100 µM. It also gave a TGI (OVCAR-4 ovarian) of 55.6 µM, a TGI (OVCAR-8 ovarian) of 35.6 µM and a TGI (RXF 393 renal) of 13.7 µM. It also gave a TGI (SF-268 CNS) of 60.8 µM, a TGI (SF-295 CNS) of 34.2 µM and a TGI (SF-539 CNS) of 23.6 µM. For the same compound, the TGI (SK-MEL-5 melanoma) was 25.1 µM, the TGI (SK-OV-3 ovarian) was greater than 100 µM and the TGI (SNB-19 CNS) was 50 µM. The TGI (SNB-75 CNS) was 27.3 µM, the TGI (SR leukemia) was 9.91 µM and the TGI (TK-10 renal) was 39.5 µM. It also gave a TGI (U251 CNS) greater than 100 µM and a TGI (UACC-257 melanoma) of 28.9 µM.

Compound `CC(C)(C)OC(=O)N1N=CCC1c1ccccc1` (configuration not stated) has a TGI (786-0 renal) greater than 100 µM, a TGI (A498 renal) greater than 100 µM and a TGI (A549 NSCLC) greater than 100 µM. It also gave a TGI (ACHN renal) greater than 100 µM, a TGI (CAKI-1 renal) greater than 100 µM and a TGI (CCRF-CEM leukemia) greater than 100 µM. For the same compound, the TGI (COLO 205 colon) was greater than 100 µM, the TGI (DU-145 prostate) was greater than 100 µM and the TGI (EKVX NSCLC) was greater than 100 µM. It also gave a TGI (HCC-2998 colon) greater than 100 µM, a TGI (HCT-116 colon) greater than 100 µM and a TGI (HCT-15 colon) greater than 100 µM. The TGI (HL-60(TB) leukemia) was greater than 100 µM, the TGI (HOP-62 NSCLC) was greater than 100 µM and the TGI (HOP-92 NSCLC) was greater than 100 µM. The TGI (HS 578T breast) was greater than 100 µM, the TGI (HT29 colon) was greater than 100 µM and the TGI (IGROV1 ovarian) was greater than 100 µM. For the same compound, the TGI (K-562 leukemia) was greater than 100 µM, the TGI (KM12 colon) was greater than 100 µM and the TGI (LOX IMVI melanoma) was greater than 100 µM. For the same compound, the TGI (M14 melanoma) was greater than 100 µM, the TGI (MCF7 breast) was greater than 100 µM and the TGI (MDA-MB-435) was greater than 100 µM. The TGI (NCI-H226 lung) was greater than 100 µM, the TGI (NCI-H23 lung) was greater than 100 µM and the TGI (NCI-H460 lung) was greater than 100 µM. For the same compound, the TGI (NCI-H522 lung) was greater than 100 µM, the TGI (NCI/ADR-RES ovarian) was greater than 100 µM and the TGI (OVCAR-3 ovarian) was greater than 100 µM. For the same compound, the TGI (OVCAR-5 ovarian) was greater than 100 µM, the TGI (OVCAR-8 ovarian) was greater than 100 µM and the TGI (RPMI-8226 leukemia) was greater than 100 µM. For the same compound, the TGI (RXF 393 renal) was greater than 100 µM, the TGI (SF-268 CNS) was greater than 100 µM and the TGI (SF-295 CNS) was greater than 100 µM. It also gave a TGI (SF-539 CNS) greater than 100 µM, a TGI (SK-MEL-5 melanoma) greater than 100 µM and a TGI (SK-OV-3 ovarian) greater than 100 µM. The TGI (SN12C renal) was greater than 100 µM, the TGI (SNB-75 CNS) was greater than 100 µM and the TGI (SR leukemia) was greater than 100 µM. For the same compound, the TGI (SW-620 colon) was greater than 100 µM, the TGI (T-47D breast) was greater than 100 µM and the TGI (TK-10 renal) was greater than 100 µM. The TGI (UACC-257 melanoma) was greater than 100 µM, the TGI (UACC-62 melanoma) was greater than 100 µM and the TGI (UO-31 renal) was greater than 100 µM.
